Measured values from patent US20100196321A1, “COMPOUNDS” (GLAXOSMITHKLINE LLC, priority 2009, published 2010).

How the values were obtained:
[1] = test system: sub-genomic HCV NS3-NS5B replicon of genotype 1a in Huh-7 cells; test: Replicon Luciferase Cell Based Assay, genotype 1a; parameters: species or system HCV genotype 1a; settings: Hepatitis C virus, Huh-7, 48 hours
Description: (§1) A 10 mM stock solution in DMSO of each test compound was further diluted in DMSO in the first row of a 384-well, V-bottom microplate, to give 100 times the top concentration of the required dilution series. Dilutions of compound were prepared in 1:3 serial dilutions from the first row onwards robotically. A robot was also used to transfer 0.5 μL volumes from each dilution well into wells of white 384-well assay plates (Nunc #164610). Control wells received 0.5 μL of DMSO alone. Plates were made in duplicate for measuring HCV replication and cytotoxicity in the replicon cell lines.
(§2) Suspensions were prepared from cultures of Huh-7 cells stably transfected with sub-genomic HCV NS3—NS5B replicons of either genotype 1b (the ET subline described by Pietschmann, T., Lohmann, V., Kaul, A., Krieger, N., Rinck, G., Rutter, G., Strand, D. & Bartenschlager, R., Journal of Virology, 2002, 76, 4008-4021) or genotype 1a linked to a firefly luciferase reporter gene. Monolayers nearing confluency were stripped from growth flasks with versene-trypsin solution and the cells re-suspended in assay medium comprising DMEM (Invitrogen #11965-092) supplemented with 5% v/v foetal calf serum, 1% v/v non-essential amino acids solution, 100 units/ml penicillin, 100 μg/ml streptomycin and 2 mM GlutaMAX-1. 50 μL of suspension containing 5,000 cells of either genotype 1b or genotype 1a luciferase replicon were added to all wells, except medium controls, of the assay plate with a Multidrop Combi (Thermo Scientific Corporation) and the plate incubated for 48 hours at 37° C. in a 5% CO2 atmosphere. A solution of Steady-Glo cytolytic buffer/luciferase substrate (Promega #E2550) was prepared according to the manufacturer's instructions, and 20 μL were added to each well with a Multidrop Combi. To measure cytotoxicity, a solution of CellTiter-Glo Luminescent Cell Viability Assay reagent (Promega #G7573) was prepared according to the manufacturer's instructions, and 20 ul were added to each well with a Multidrop Combi. The plates were then read for luminescence on an Envision Multilabel Reader (Perkin Elmer)
(§3) Potency: The luminescence values from all compound-free wells containing cells were averaged to obtain a positive control value. The mean luminescence value from the compound-free wells that had received no cells was used to provide the negative (background) control value. After the subtraction of the mean background from all values, the readings from wells at each compound concentration were expressed as a percentage of the positive control signal. The quantifiable and specific reduction of luciferase signal in the presence of a drug is a direct measure of replicon inhibition. The BioAssay application and XC50 module were used to plot the curve of percentage inhibition against compound concentration and derive the 50% inhibitory concentration (IC50) for the compound.

[2] = test system: sub-genomic HCV NS3-NS5B replicon of genotype 1b (ET subline) in Huh-7 cells; test: Replicon Luciferase Cell Based Assay, genotype 1b; parameters: species or system HCV genotype 1b; settings: Hepatitis C virus, Huh-7, 48 h, read-out: Genotype 1b (IC50 μM)
Description: as §1, §2, §3

COc1ccc2c(O[C@@H]3C[C@H]4C(=O)N[C@]5(C(=O)NS(=O)(=O)C6CC6)C[C@H]5/C=C\CCCCC[C@H](NC(=O)N5CCC(c6ccccc6)CC5)C(=O)N4C3)cc(-c3nc(C(C)C)cs3)nc2c1C [Example 20, (2R,6S,13aS,14aR,16aS)-N-(cyclopropylsulfonyl)-2-{[8-methyl-2-[4-(1-methylethyl)-1,3-thiazol-2-yl]-7-(methyloxy)-4-quinolinyl]oxy}-5,16-dioxo-6-{[(4-phenyl-1-piperidinyl)carbonyl]amino}-1,2,3,6,7,8,9,10,11,13a,14,15,16,16a-tetradecahydrocyclopropa[e]pyrrolo[1,2-a][1,4]diazacyclopentadecine-14a(5H)-carboxamide]
IC50 [1]: < 0.01 µM | IC50 [2]: < 0.01 µM

COc1ccc2c(O[C@@H]3C[C@H]4C(=O)N[C@]5(C(=O)NS(=O)(=O)C6CC6)C[C@H]5/C=C\CCCCC[C@H](NC(=O)N5CCC(N6CCCC6)CC5)C(=O)N4C3)cc(-c3nc(C(C)C)cs3)nc2c1C [Example 21, (2R,6S,13aS,14aR,16aS)-N-(cyclopropylsulfonyl)-2-{[8-methyl-2-[4-(1-methylethyl)-1,3-thiazol-2-yl]-7-(methyloxy)-4-quinolinyl]oxy}-5,16-dioxo-6-({[4-(1-pyrrolidinyl)-1-piperidinyl]carbonyl}amino)-1,2,3,6,7,8,9,10,11,13a,14,15,16,16a-tetradecahydrocyclopropa[e]pyrrolo[1,2-a][1,4]diazacyclopentadecine-14a(5H)-carboxamide]
IC50 [1]: < 0.01 µM | IC50 [2]: < 0.01 µM

COc1ccc2c(O[C@@H]3C[C@H]4C(=O)N[C@]5(C(=O)NS(=O)(=O)C6CC6)C[C@H]5/C=C\CCCCC[C@H](NC(=O)N5CCC(O)CC5)C(=O)N4C3)cc(-c3nc(C(C)C)cs3)nc2c1C [Example 22, (2R,6S,13aS,14aR,16aS)-N-(cyclopropylsulfonyl)-6-{[(4-hydroxy-1-piperidinyl)carbonyl]amino}-2-{[8-methyl-2-[4-(1-methylethyl)-1,3-thiazol-2-yl]-7-(methyloxy)-4-quinolinyl]oxy}-5,16-dioxo-1,2,3,6,7,8,9,10,11,13a,14,15,16 ,16a-tetradecahydrocyclopropa[e]pyrrolo[1,2-a][1,4]diazacyclopentadecine-14a(5H)-carboxamide]
IC50 [1]: < 0.01 µM | IC50 [2]: < 0.01 µM

COc1ccc2c(O[C@@H]3C[C@H]4C(=O)N[C@]5(C(=O)NS(=O)(=O)C6CC6)C[C@H]5/C=C\CCCCC[C@H](NC(=O)N5CCC(CC(N)=O)CC5)C(=O)N4C3)cc(-c3nc(C(C)C)cs3)nc2c1C [Example 23, (2R,6S,13aS,14aR,16aS)-6-({[4-(2-amino-2-oxoethyl)-1-piperidinyl]carbonyl}amino)-N-(cyclopropylsulfonyl)2-{[8-methyl-2-[4-(1-methylethyl)-1,3-thiazol-2-yl]-7-(methyloxy)-4-quinolinyl]oxy}-5,16-dioxo-1,2,3,6,7,8,9,10,11,13a,14,15,16,16a-tetradecahydrocyclopropa[e]pyrrolo[1,2-a][1,4]diazacyclopentadecine-14a(5H)-carboxamide]
IC50 [1]: < 0.01 µM | IC50 [2]: < 0.01 µM

COc1ccc2c(O[C@@H]3C[C@H]4C(=O)N[C@]5(C(=O)NS(=O)(=O)C6CC6)C[C@H]5/C=C\CCCCC[C@H](NC(=O)N5CC6CCCC6C5)C(=O)N4C3)cc(-c3nc(C(C)C)cs3)nc2c1C (stereo partly drawn) [Example 24, (2R,6S,13aS,14aR,16aS)-N-(cyclopropylsulfonyl)-6-[(hexahydrocyclopenta[c]pyrrol-2(1H)-ylcarbonyl)amino]-2-{[8-methyl-2-[4-(1-methylethyl)-1,3-thiazol-2-yl]-7-(methyloxy)-4-quinolinyl]oxy}-5,16-dioxo-1,2,3,6,7,8,9,10,11,13a,14,15,16,16a-tetradecahydrocyclopropa[e]pyrrolo[1,2-a][1,4]diazacyclopentadecine-14a(5H)-carboxamide]
IC50 [1]: < 0.01 µM | IC50 [2]: < 0.01 µM

COc1ccc2c(O[C@@H]3C[C@H]4C(=O)N[C@]5(C(=O)NS(=O)(=O)C6CC6)C[C@H]5/C=C\CCCCC[C@H](NC(=O)N5CCC(CO)CC5)C(=O)N4C3)cc(-c3nc(C(C)C)cs3)nc2c1C [Example 25, (2R,6S,13aS,14aR,16aS)-N-(cyclopropylsulfonyl)-6-({[4-(hydroxymethyl)-1-piperidinyl]carbonyl}amino)-2-{[8-methyl-2-[4-(1-methylethyl)-1,3-thiazol-2-yl]-7-(methyloxy)-4-quinolinyl]oxy}-5,16-dioxo-1,2,3,6,7,8,9,10,11,13a,14,15,16,16a-tetradecahydrocyclopropa[e]pyrrolo[1,2-a][1,4]diazacyclopentadecine-14a(5H)-carboxamide]
IC50 [1]: < 0.01 µM | IC50 [2]: < 0.01 µM

CCN(CC)C(=O)N[C@H]1CCCCC/C=C\[C@@H]2C[C@@]2(C(=O)NS(=O)(=O)C2CC2)NC(=O)[C@@H]2C[C@@H](Oc3cc(-c4nc(C5CC5)cs4)nc4c(C)c(OC)ccc34)CN2C1=O [Example 26, (2R,6S,13aS,14aR,16aS,Z)-N-(cyclopropylsulfonyl)-2-(2-(4-cyclopropylthiazol-2-yl)-7-methoxy-8-methylquinolin-4-yloxy)-6-(3,3-diethylureido)-5,16-dioxo-1,2,3,5,6,7,8,9,10,11,13a,14,14a,15,16,16a-hexadecahydrocyclopropa[e]pyrrolo[1,2-a][1,4]diazacyclopentadecine-14a-carboxamide]
IC50 [1]: < 0.01 µM | IC50 [2]: < 0.01 µM

C=C1CCN(C(=O)N[C@H]2CCCCC/C=C\[C@@H]3C[C@@]3(C(=O)NS(=O)(=O)C3CC3)NC(=O)[C@@H]3C[C@@H](Oc4cc(-c5nc(C6CC6)cs5)nc5c(Cl)c(OC)ccc45)CN3C2=O)CC1 [Example 27, (2R,6S,13aS,14aR,16aS,Z)-2-(8-chloro-2(4-cyclopropylthiazol-2-yl)-7-methoxyquinolin-4-yloxy)-N-(cyclopropylsulfonyl)-6-(4-methylenepiperidine-1-carboxamido)-5,16-dioxo-1,2,3,5,6,7,8,9,10,11,13a,14,14a,15,16,16a-hexadecahydrocyclopropa[e]pyrrolo[1,2-a][1,4]diazacyclopentadecine-14a-carboxamide]
IC50 [1]: < 0.01 µM | IC50 [2]: < 0.01 µM

COCCN(C)C(=O)N[C@H]1CCCCC/C=C\[C@@H]2C[C@@]2(C(=O)NS(=O)(=O)C2CC2)NC(=O)[C@@H]2C[C@@H](Oc3cc(-c4nc(C5CC5)cs4)nc4c(Cl)c(OC)ccc34)CN2C1=O [Example 28, (2R,6S,13aS,14aR,16aS)-2-{[8-chloro-2-(4-cyclopropyl-1,3-thiazol-2-yl)-7-(methyloxy)-4-quinolinyl]oxy}-N-(cyclopropylsulfonyl)-6-[({methyl[2-(methyloxy)ethyl]amino}carbonyl)amino]-5,16-dioxo-1,2,3,6,7,8,9,10,11,13a,14,15,16,16a-tetradecahydrocyclopropa[e]pyrrolo[1,2-a][1,4]diazacyclopentadecine-14a(5H)-carboxamide]
IC50 [1]: < 0.01 µM | IC50 [2]: < 0.01 µM

CCN(CC)C(=O)N[C@H]1CCCCC/C=C\[C@@H]2C[C@@]2(C(=O)NS(=O)(=O)C2CC2)NC(=O)[C@@H]2C[C@@H](Oc3cc(-c4nc(C(F)(F)F)cs4)nc4c(Cl)c(OC)ccc34)CN2C1=O [Example 29, Cycloprobanesulfonic acid [18-[8-chloro-7-methoxy-2-(4-trifluoromethyl-thiazol-2-yl)-quinolin-4-yloxy]-14-(3,3-diethyl-ureido)-2,15-dioxo-3,16-diaza-tricyclo[14.3.0.04,6]nonadec-7-ene-4-carbonyl]-amide]
IC50 [1]: < 0.01 µM | IC50 [2]: < 0.01 µM
